Laboratory results published in US20180360091A1, “NUTRITIONAL COMPOSITIONS AND INFANT FORMULAS TO PROMOTE MYELINATION IN THE BRAIN” (NESTEC S.A., priority 2015, published 2018).

Tested on: children up to 5 years of age
Assay: Cross-sectional correlation (GLM) of formula nutrient composition with brain myelination
Format: in vivo, human
Details: for Nutritional driver for myelination in the final general linear model: 5 most used formulas, voxel-wise correlations, p<0.05 corrected, inter-variable correlation threshold 0.9
Procedure: MRI brain scans of infants and children between 0 and 5 years were acquired using a white matter imaging technique. This technique provides a quantitative measure, the Myelin Water Fraction (MWF), which is a surrogate marker of myelin content. When mapped as a function of time across early childhood, myelination trajectories can be generated.
Infant formula composition: six infant formulas fed to infants participating in study were analyzed for their composition/level of myelin-relevant nutrients.
Each infant was scanned using the mcDESPOT (multicomponent Driven Equilibrium Single Pulse Observation of T1 and T2) white matter imaging technique Deoni et al. (Magn. Reson. Med. 2008, 60:1372-1387), which provides a quantitative measure of the myelin water fraction (MWF) at each imaging point throughout the brain. All infants were scanned during natural (i.e. non-sedated) sleep using acoustically-muffled mcDESPOT imaging protocols. Total imaging times ranged from 19 minutes for the youngest toddlers to 24 minutes for the older 4 year-old children.
Following image alignment, non-brain signal removal, and correction for main and transmit magnetic field (B0 and B1) inhomogeneities, a three-pool signal model (comprising the myelin-associated water; intra-extra axonal water; and a non-exchanging free-water pool) was fit to the mcDESPOT data to derive voxel-wise MWF maps.
Each child's map was then non-linearly aligned to a study specific template. White matter masks, corresponding to 5 bilateral regions (frontal, temporal, occipital, parietal, and cerebellar WM) as well as the body, genu, and splenium of the corpus callosum were created from common databases, registered to the common template, and superimposed onto each child's MWF map. Mean values for each region were then determined for each child and used for subsequent developmental analysis and trajectory modeling.
From the cohort described above, children up to 5 years of age that were fed different infant formulas during infancy were included in a large correlation analysis to examine the relationship between formula nutrient composition and brain myelination. The 5 most frequently used formulas in that cohort were analyzed for their nutritional composition. A single general linear model (GLM) was constructed that modeled all quantified nutrients, sphingomyelin, and child age. Voxel-wise correlations were calculated with significance defined as p<0.05 corrected for type 1 error using a cluster based correction approach.
To reduce the number of variables in the model, we examined the inter-variable correlation.

Compound | Nutritional driver for myelination in the final general linear model | Association with myelination (myelin water fraction) over time in the brain (in particular cerebellum, internal capsule, visual cortex, frontal lobe)
CCCCC/C=C\C/C=C\C/C=C\C/C=C\CCCC(=O)O [ARA, arachidonic acid] | identified drivers | –
[Ca] [Calcium] | identified drivers | –
C[N+](C)(C)CCO [Choline] | identified drivers | –
Nc1nc2ncc(CNc3ccc(C(=O)N[C@@H](CCC(=O)O)C(=O)O)cc3)nc2c(=O)[nH]1 [Folic Acid, folic acid] | identified drivers | –
[Mg] [Magnesium] | identified drivers | –
[P] [Phosphorus] | identified drivers | –
Iron | identified drivers | –
Vitamin B12 | identified drivers | –
Zinc | identified drivers | –
phosphatidyinositol | nutritional drivers for myelination | –
phosphatidylcholine | nutritional drivers for myelination | –
sphingomyelin | nutritional drivers for myelination | significant association with myelination
